Reference: PubChem BioAssay (NCI)
Where “and” joins values, the source holds several entries; their conditions need not be identical. Equal entries are not always repeated.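 The compound was tested at five concentrations on cells cultured in 96-well plates, with a 48-hour exposure period. At the GI50, growth is halved. At the TGI there is no net growth.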

Assays:
Test in all cases: NCI tumour cell line growth inhibition, 48 h
786-0 renal = system: 786-0 renal
UACC-62 melanoma = system: UACC-62 melanoma
UO-31 renal = system: UO-31 renal
NCI-H23 lung = system: NCI-H23 lung
HCC-2998 colon = system: HCC-2998 colon
HS 578T breast = system: HS 578T breast
SF-295 CNS = system: SF-295 CNS
T-47D breast = system: T-47D breast
COLO 205 colon = system: COLO 205 colon
HT29 colon = system: HT29 colon

Structure (SMILES)	GI50 (786-0 renal)	TGI (786-0 renal)	GI50 (UACC-62 melanoma)	TGI (UACC-62 melanoma)	GI50 (UO-31 renal)	TGI (UO-31 renal)	GI50 (NCI-H23 lung)	TGI (NCI-H23 lung)	GI50 (HCC-2998 colon)	TGI (HCC-2998 colon)	GI50 (HS 578T breast)	TGI (HS 578T breast)	GI50 (SF-295 CNS)	TGI (SF-295 CNS)	TGI (T-47D breast)	TGI (COLO 205 colon)	TGI (HT29 colon)	GI50 (T-47D breast)	GI50 (COLO 205 colon)	GI50 (HT29 colon)
O=C(CSC(c1ccccc1)c1ccccc1)N/N=C/c1cccc(Cl)c1	17.3 µM	32.7 µM	16 µM	30.3 µM	11.7 µM	23.9 µM	14.9 µM	29 µM	18.6 µM	32.6 µM	15.7 µM	38.2 µM	22.9 µM	44.8 µM	–	–	–	–	–	–
CN(C)CCNC(=O)Cn1cc([N+](=O)[O-])c(=O)c2ccccc21	–	> 100 µM	–	> 100 µM	–	> 100 µM	–	> 100 µM	–	> 100 µM	–	> 100 µM	–	> 100 µM	> 100 µM	> 100 µM	> 100 µM	–	–	–
Cc1cc(=O)[nH]o1	–	> 100 µM	–	> 100 µM	–	> 100 µM	–	> 100 µM	–	> 100 µM	–	> 100 µM	–	> 100 µM	–	> 100 µM	> 100 µM	–	–	–
CCCC[N+](CCCC)=c1ccc2nc3c(C)cc(N(CC)CC)cc3sc-2c1	0.302 µM	1.44 µM	0.29 µM	1.77 µM	0.134 µM	0.804 µM	0.0601 µM	1.04 µM	–	–	0.341 µM	2.29 µM	–	–	–	–	–	–	–	–
COc1ccc(N=Nc2c(-c3ccccc3)nn(C(=O)CC(=O)Nc3cccc(Cl)c3)c2-c2ccccc2)cc1	–	> 100 µM	–	> 100 µM	–	> 100 µM	–	> 100 µM	–	80.4 µM	–	–	–	> 100 µM	–	> 100 µM	> 100 µM	–	–	–
O=c1c2ccccc2n2n1CC(O)C2 (stereo not given)	–	> 100 µM	–	–	–	> 100 µM	–	> 100 µM	–	> 100 µM	> 100 µM	> 100 µM	–	> 100 µM	> 100 µM	> 100 µM	> 100 µM	> 100 µM	–	–
C1C[S][Ge]2([S]CCO1)[S]CCOCC[S]2	> 100 µM	> 100 µM	> 100 µM	> 100 µM	> 100 µM	> 100 µM	> 100 µM	> 100 µM	> 100 µM	> 100 µM	–	–	–	–	–	> 100 µM	–	–	> 100 µM	–
O=C(c1ccccc1)c1ccc(OCCOc2ccc(Nc3ccccc3)cc2)cc1	–	> 100 µM	–	> 100 µM	–	> 100 µM	–	> 100 µM	–	> 100 µM	–	–	–	93.9 µM	–	> 100 µM	–	–	–	–
C/C(=N\N=C(\[Se])N1CCN(c2ccccn2)CC1)c1ccccn1	0.198 µM	19.8 µM	–	–	0.138 µM	> 40 µM	0.023 µM	21.8 µM	–	23.3 µM	–	68.2 µM	0.0204 µM	16.7 µM	–	0.0358 µM	14.2 µM	–	0.00449 µM	0.00203 µM
O=S(=O)(O)c1ccc(-c2nnc(-c3ccccn3)nc2-c2ccc(S(=O)(=O)O)o2)o1	–	> 100 µM	–	> 100 µM	–	> 100 µM	–	> 100 µM	–	–	–	> 100 µM	–	> 100 µM	> 100 µM	> 100 µM	> 100 µM	–	–	–
Cn1c(O)c(C(/C=C/c2ccccc2)=NCCN=C(/C=C/c2ccccc2)c2c(O)n(C)c(=O)n(C)c2=O)c(=O)n(C)c1=O	21.3 µM	> 50 µM	19.2 µM	> 50 µM	23.3 µM	> 50 µM	15 µM	> 50 µM	–	–	13.4 µM	34.7 µM	16.2 µM	> 50 µM	> 50 µM	> 50 µM	> 50 µM	16.1 µM	17.3 µM	16.9 µM
CC/C(=C(/CC)c1ccc([O-])cc1)c1ccc([O-])cc1.CC/C(=C(\CC)c1ccc([O-])cc1)c1ccc([O-])cc1.O=C([CH-]C(=O)c1ccccc1)c1ccccc1.O=C([CH-]C(=O)c1ccccc1)c1ccccc1.O=C([CH-]C(=O)c1ccccc1)c1ccccc1.O=C([CH-]C(=O)c1ccccc1)c1ccccc1.[Ti+4].[Ti+4]	16.9 µM	32.4 µM	18.9 µM	52.4 µM	35 µM	72.2 µM	25.9 µM	97.3 µM	45.7 µM	> 100 µM	–	–	19.9 µM	42.6 µM	–	> 100 µM	> 100 µM	–	37.9 µM	29.8 µM
CCOc1cc2c(cc1O)/C(=N\O)C[C@@H]1[C@@H]2CC[C@]2(C)[C@@H](O)CC[C@@H]12	0.015 µM	> 100 µM	0.00607 µM	28.8 µM	0.984 µM	46.1 µM	0.004 µM	–	1.63 µM	9.51 µM and > 41.1 µM	0.0271 µM	> 82.9 µM	0.00322 µM and 0.0266 µM	0.081 µM and 0.0784 µM	–	–	> 100 µM	–	0.00176 µM	3.94 µM
CC(=O)c1cccc(NC(=O)C(=O)C(C2OC(=O)c3ccccc32)[N+](=O)[O-])c1 (stereo not given)	–	> 100 µM	–	> 100 µM	–	> 100 µM	–	> 100 µM	–	> 100 µM	–	–	–	> 100 µM	–	> 100 µM	> 100 µM	–	–	–
O=C(O)Cc1cccc2c1Oc1ccccc1S2	–	> 100 µM	–	> 100 µM	–	> 100 µM	–	> 100 µM	–	> 100 µM	–	–	–	> 100 µM	–	> 100 µM	> 100 µM	–	–	–
O=c1cccccc1NCCCCCCNc1cccccc1=O	–	> 100 µM	–	> 100 µM	–	> 100 µM	–	> 100 µM	–	> 100 µM	–	–	–	> 100 µM	–	> 100 µM	> 100 µM	–	–	–
COc1cnc2c(c1)C(=O)c1c-2n(CCCN2CCC(O)CC2)c(=O)c2cc(F)ccc12	0.211 µM	0.925 µM	0.24 µM	0.918 µM	0.135 µM	0.619 µM	0.292 µM	1.32 µM	1.23 µM	9.98 µM	1.67 µM	52.4 µM	–	–	0.86 µM	–	–	0.0996 µM	–	–
CCSC1(SCC)CC(Cc2ccc(OC)cc2)N(C=NC(C)(C)C)C1 (stereo not given)	–	> 100 µM	–	67 µM	–	87.5 µM	–	43.3 µM	–	40.2 µM	–	–	–	45.5 µM	–	74.6 µM	51.5 µM	–	–	–
